Reference: article PMC10104807, “Modulation of tau tubulin kinases (TTBK1 and TTBK2) impacts ciliogenesis” (Scientific Reports, 2023)

Experiments:
PIKfyve = target: T1, PIKfyve (Homo sapiens, UniProt Q9Y2I7); experiment: DiscoverX scanMAX binding assay; conditions: 1 μM
T1 construct: purchased Eurofins (radiometric) / Eurofins DiscoverX scanMAX / Reaction Biology / SignalChem
How it was run: (§1)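 Values are percent of control (PoC) from a kinase binding assay, obtained with test compound at 1 µM against a panel of 403 wild-type human kinases.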

MAP4K5 = target: T2, MAP4K5 (Homo sapiens, UniProt Q9Y4K4); experiment: DiscoverX scanMAX binding assay; conditions: 1 μM
T2 construct: purchased Eurofins
How it was run: as §1

RIPK5 = target: T3, RIPK5 (Homo sapiens, UniProt Q6XUX3); experiment: DiscoverX scanMAX binding assay; conditions: 1 μM
T3 construct: purchased Eurofins (radiometric) / Eurofins DiscoverX scanMAX / Reaction Biology / SignalChem
How it was run: as §1

MAP3K3 = target: T4, MAP3K3 (Homo sapiens, UniProt Q99759); experiment: DiscoverX scanMAX binding assay
T4 construct: purchased Eurofins (radiometric) / Eurofins DiscoverX scanMAX / Reaction Biology / SignalChem
How it was run: as §1

PAK7 = target: T5, PAK7 (Homo sapiens, UniProt Q9P286); experiment: DiscoverX scanMAX binding assay
T5 construct: purchased Eurofins (radiometric) / Eurofins DiscoverX scanMAX / Reaction Biology / SignalChem
How it was run: as §1

MEK4 = target: T6, MEK4 (Homo sapiens, UniProt P45985); experiment: DiscoverX scanMAX binding assay; conditions: 1 μM
T6 construct: purchased Eurofins (radiometric) / Eurofins DiscoverX scanMAX / Reaction Biology / SignalChem
How it was run: as §1

MAP3K2 = target: T7, MAP3K2 (Homo sapiens, UniProt Q9Y2U5); experiment: DiscoverX scanMAX binding assay
T7 construct: purchased Eurofins (radiometric) / Eurofins DiscoverX scanMAX / Reaction Biology / SignalChem
How it was run: as §1

PAK4 = target: T8, PAK4 (Homo sapiens, UniProt O96013); experiment: DiscoverX scanMAX binding assay
T8 construct: purchased Eurofins (radiometric) / Eurofins DiscoverX scanMAX / Reaction Biology / SignalChem
How it was run: as §1

[1] = target: T9, JAK2(JH1domain-catalytic) (Homo sapiens, UniProt O60674); experiment: DiscoverX scanMAX binding assay
T9 construct: JAK2(JH1domain-catalytic); purchased Eurofins (radiometric) / Eurofins DiscoverX scanMAX / Reaction Biology / SignalChem
How it was run: as §1

TTBK1 [2] = system: TTBK1; set-up: method as in PMID 33944571; conditions: read-out: TTBK1 IC50 (Biogen biochemical assay); cited from earlier work
TTBK2 = system: TTBK2; set-up: method as in earlier work; conditions: screened at 1 μM; cited from earlier work
TTBK1 [3] = system: TTBK1; set-up: method as in earlier work; conditions: screened at 1 μM; cited from earlier work
[4] = Kinetic solubility (Analiza); assay type: physicochemical; conditions: PBS pH 7.4, from 10 mM DMSO stocks
Source text: Calculated solubility values in Table 2 have been corrected for background nitrogen present in the DMSO and media.

NIK = target: T10, NIK (Homo sapiens, UniProt Q99558); experiment: DiscoverX scanMAX binding assay; conditions: 1 μM
T10 construct: purchased Eurofins (radiometric) / Eurofins DiscoverX scanMAX / Reaction Biology / SignalChem
How it was run: as §1

BRAF(V600E) = target: T11, BRAF(V600E) (Homo sapiens, UniProt P15056, V600E); experiment: DiscoverX scanMAX binding assay; conditions: 1 μM
T11 construct: purchased Eurofins (radiometric) / Eurofins DiscoverX scanMAX / Reaction Biology / SignalChem

TSSK3 = target: T12, TSSK3 (Homo sapiens, UniProt Q96PN8); experiment: DiscoverX scanMAX binding assay; conditions: 1 μM
T12 construct: purchased Eurofins
T12 sequence (Q96PN8 1-268): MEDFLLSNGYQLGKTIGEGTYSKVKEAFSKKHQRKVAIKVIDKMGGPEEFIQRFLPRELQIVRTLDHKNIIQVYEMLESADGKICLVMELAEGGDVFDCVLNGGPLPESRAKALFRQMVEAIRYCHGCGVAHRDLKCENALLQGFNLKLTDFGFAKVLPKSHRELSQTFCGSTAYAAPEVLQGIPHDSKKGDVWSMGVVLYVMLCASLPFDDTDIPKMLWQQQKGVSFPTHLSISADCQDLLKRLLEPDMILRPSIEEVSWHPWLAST
How it was run: as §1

PFCDPK1(P.falciparum) = target: T13, PFCDPK1(P.falciparum) (Plasmodium falciparum, UniProt P62344); experiment: DiscoverX scanMAX binding assay; conditions: 1 μM
T13 construct: purchased Eurofins (radiometric) / Eurofins DiscoverX scanMAX / Reaction Biology / SignalChem
How it was run: as §1

PRKD3 = target: T14, PRKD3 (Homo sapiens, UniProt O94806); experiment: DiscoverX scanMAX binding assay; conditions: 1 μM
T14 construct: purchased Eurofins (radiometric) / Eurofins DiscoverX scanMAX / Reaction Biology / SignalChem
How it was run: as §1

GRK2 = target: T15, GRK2 (Homo sapiens, UniProt P25098); experiment: DiscoverX scanMAX binding assay; conditions: 1 μM
T15 construct: purchased Eurofins (radiometric) / Eurofins DiscoverX scanMAX / Reaction Biology / SignalChem
How it was run: as §1

CDC2L2 = target: T16, CDC2L2 (Homo sapiens, UniProt Q9UQ88); experiment: DiscoverX scanMAX binding assay; conditions: 1 μM
T16 construct: purchased Eurofins (radiometric) / Eurofins DiscoverX scanMAX / Reaction Biology / SignalChem
How it was run: as §1

[5] = target: T17, JAK3(JH1domain-catalytic) (Homo sapiens, UniProt P52333); experiment: DiscoverX scanMAX binding assay; conditions: 1 μM
T17 construct: JAK3(JH1domain-catalytic); purchased Eurofins (radiometric) / Eurofins DiscoverX scanMAX / Reaction Biology / SignalChem
How it was run: as §1

CSNK1D = target: T18, CSNK1D (Homo sapiens, UniProt P48730); experiment: DiscoverX scanMAX binding assay; conditions: 1 μM
T18 construct: purchased Eurofins (radiometric) / Eurofins DiscoverX scanMAX / Reaction Biology / SignalChem
How it was run: as §1

[6] = target: T19, RPS6KA4(Kin.Dom.2-C-terminal) (Homo sapiens, UniProt O75676); experiment: DiscoverX scanMAX binding assay; conditions: 1 μM
T19 construct: RPS6KA4(Kin.Dom.2-C-terminal); purchased Eurofins (radiometric) / Eurofins DiscoverX scanMAX / Reaction Biology / SignalChem
How it was run: as §1

PRKCE = target: T20, PRKCE (Homo sapiens, UniProt Q02156); experiment: DiscoverX scanMAX binding assay; conditions: 1 μM
T20 construct: purchased Eurofins (radiometric) / Eurofins DiscoverX scanMAX / Reaction Biology / SignalChem
How it was run: as §1

AURKB = target: T21, AURKB (Homo sapiens, UniProt Q96GD4); experiment: DiscoverX scanMAX binding assay; conditions: 1 μM
T21 construct: purchased Eurofins (radiometric) / Eurofins DiscoverX scanMAX / Reaction Biology / SignalChem
How it was run: as §1

PRKD2 = target: T22, PRKD2 (Homo sapiens, UniProt Q9BZL6); experiment: DiscoverX scanMAX binding assay; conditions: 1 μM
T22 construct: purchased Eurofins (radiometric) / Eurofins DiscoverX scanMAX / Reaction Biology / SignalChem
How it was run: as §1

[7] = target: T23, RPS6KA5(Kin.Dom.2-C-terminal) (Homo sapiens, UniProt O75582); experiment: DiscoverX scanMAX binding assay; conditions: 1 μM
T23 construct: RPS6KA5(Kin.Dom.2-C-terminal); purchased Eurofins (radiometric) / Eurofins DiscoverX scanMAX / Reaction Biology / SignalChem
How it was run: as §1

CHEK2 = target: T24, CHEK2 (Homo sapiens, UniProt O96017); experiment: DiscoverX scanMAX binding assay; conditions: 1 μM
T24 construct: purchased Eurofins (radiometric) / Eurofins DiscoverX scanMAX / Reaction Biology / SignalChem
How it was run: as §1

CSNK1E = target: T25, CSNK1E (Homo sapiens, UniProt P49674); experiment: DiscoverX scanMAX binding assay; conditions: 1 μM
T25 construct: purchased Eurofins (radiometric) / Eurofins DiscoverX scanMAX / Reaction Biology / SignalChem
How it was run: as §1

T7 sequence (Q9Y2U5 whole entry): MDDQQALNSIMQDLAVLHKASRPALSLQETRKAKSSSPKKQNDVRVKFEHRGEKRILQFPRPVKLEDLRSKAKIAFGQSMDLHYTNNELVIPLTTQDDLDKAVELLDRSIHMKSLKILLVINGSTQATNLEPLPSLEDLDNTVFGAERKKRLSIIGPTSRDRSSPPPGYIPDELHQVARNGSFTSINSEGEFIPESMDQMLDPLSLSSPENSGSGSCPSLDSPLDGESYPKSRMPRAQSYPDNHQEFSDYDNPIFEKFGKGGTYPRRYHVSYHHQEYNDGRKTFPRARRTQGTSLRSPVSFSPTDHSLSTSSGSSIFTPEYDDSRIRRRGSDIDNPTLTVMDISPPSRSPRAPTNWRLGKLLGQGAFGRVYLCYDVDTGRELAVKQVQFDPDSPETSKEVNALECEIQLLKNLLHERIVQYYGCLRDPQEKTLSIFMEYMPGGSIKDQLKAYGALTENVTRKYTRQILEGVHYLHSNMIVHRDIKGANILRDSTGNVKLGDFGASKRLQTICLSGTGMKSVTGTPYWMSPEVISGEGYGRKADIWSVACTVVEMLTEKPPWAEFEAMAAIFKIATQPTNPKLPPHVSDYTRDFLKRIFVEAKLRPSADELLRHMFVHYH
T9 sequence (O60674 849-1124 limits assumed): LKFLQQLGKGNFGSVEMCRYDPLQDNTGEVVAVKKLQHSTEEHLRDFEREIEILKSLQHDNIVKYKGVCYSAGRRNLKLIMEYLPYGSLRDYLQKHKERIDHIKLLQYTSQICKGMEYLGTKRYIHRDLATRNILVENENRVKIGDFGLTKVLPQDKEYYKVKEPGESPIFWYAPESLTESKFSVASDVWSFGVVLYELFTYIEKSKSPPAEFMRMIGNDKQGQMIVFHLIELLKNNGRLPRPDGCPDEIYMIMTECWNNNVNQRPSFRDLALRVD
T19 sequence (O75676 411-674 limits assumed): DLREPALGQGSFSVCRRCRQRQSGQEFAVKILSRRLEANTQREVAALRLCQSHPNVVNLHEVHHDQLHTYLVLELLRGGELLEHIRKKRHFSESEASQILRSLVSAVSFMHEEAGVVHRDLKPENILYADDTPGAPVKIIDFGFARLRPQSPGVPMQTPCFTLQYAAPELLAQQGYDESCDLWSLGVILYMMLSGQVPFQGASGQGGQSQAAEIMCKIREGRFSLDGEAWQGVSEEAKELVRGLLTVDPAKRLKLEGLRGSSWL
T1 sequence (Q9Y2I7 whole entry): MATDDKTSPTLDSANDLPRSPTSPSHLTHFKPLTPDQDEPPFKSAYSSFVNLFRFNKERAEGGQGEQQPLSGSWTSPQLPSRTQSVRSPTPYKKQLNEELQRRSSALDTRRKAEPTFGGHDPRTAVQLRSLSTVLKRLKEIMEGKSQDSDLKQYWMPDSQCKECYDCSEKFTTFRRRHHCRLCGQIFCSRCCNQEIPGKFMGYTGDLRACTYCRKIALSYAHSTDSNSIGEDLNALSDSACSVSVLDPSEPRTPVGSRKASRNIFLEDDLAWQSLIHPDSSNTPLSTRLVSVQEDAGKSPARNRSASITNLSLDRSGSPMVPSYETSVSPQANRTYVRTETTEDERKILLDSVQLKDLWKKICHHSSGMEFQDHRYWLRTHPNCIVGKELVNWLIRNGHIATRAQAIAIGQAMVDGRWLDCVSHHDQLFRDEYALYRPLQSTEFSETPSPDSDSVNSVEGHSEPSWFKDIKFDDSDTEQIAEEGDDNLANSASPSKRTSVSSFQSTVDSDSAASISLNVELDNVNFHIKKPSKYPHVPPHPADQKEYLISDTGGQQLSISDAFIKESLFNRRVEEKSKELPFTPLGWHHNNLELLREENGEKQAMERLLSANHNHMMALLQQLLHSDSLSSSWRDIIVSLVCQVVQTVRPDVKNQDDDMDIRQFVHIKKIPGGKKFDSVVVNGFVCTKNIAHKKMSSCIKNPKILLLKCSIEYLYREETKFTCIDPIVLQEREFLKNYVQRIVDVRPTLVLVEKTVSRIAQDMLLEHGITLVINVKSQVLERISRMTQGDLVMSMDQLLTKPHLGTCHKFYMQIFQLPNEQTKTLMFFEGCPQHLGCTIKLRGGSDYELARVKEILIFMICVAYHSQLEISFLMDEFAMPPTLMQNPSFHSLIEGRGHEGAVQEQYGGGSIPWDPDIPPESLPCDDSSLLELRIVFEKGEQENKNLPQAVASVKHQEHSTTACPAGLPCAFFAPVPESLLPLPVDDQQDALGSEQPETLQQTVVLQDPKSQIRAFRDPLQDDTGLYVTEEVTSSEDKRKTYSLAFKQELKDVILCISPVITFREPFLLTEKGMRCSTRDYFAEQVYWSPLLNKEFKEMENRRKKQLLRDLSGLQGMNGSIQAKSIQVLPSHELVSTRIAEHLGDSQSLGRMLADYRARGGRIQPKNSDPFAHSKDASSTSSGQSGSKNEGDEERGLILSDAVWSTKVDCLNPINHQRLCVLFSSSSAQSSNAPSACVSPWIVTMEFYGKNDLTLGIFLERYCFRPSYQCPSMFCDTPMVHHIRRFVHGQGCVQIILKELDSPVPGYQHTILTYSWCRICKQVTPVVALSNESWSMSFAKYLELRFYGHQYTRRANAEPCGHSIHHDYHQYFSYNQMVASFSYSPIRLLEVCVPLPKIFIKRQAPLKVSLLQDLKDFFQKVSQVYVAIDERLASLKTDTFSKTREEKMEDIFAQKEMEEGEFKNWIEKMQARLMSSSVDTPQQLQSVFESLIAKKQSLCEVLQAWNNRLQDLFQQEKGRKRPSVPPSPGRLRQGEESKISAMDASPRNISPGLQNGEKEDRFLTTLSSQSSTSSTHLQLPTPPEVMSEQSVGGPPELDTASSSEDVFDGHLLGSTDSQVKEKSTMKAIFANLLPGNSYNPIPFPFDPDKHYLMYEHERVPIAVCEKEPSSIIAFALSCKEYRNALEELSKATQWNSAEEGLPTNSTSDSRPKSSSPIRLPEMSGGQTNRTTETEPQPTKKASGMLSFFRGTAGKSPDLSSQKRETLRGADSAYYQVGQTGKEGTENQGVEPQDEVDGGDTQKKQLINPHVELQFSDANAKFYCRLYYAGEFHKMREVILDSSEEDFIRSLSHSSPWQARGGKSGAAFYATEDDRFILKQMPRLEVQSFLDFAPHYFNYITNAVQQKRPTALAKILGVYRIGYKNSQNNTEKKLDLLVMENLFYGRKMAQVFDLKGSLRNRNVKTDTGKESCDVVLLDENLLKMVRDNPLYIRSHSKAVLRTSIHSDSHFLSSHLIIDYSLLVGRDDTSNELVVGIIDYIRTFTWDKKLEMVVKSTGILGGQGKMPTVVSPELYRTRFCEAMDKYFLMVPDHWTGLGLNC
T20 sequence (Q02156 whole entry): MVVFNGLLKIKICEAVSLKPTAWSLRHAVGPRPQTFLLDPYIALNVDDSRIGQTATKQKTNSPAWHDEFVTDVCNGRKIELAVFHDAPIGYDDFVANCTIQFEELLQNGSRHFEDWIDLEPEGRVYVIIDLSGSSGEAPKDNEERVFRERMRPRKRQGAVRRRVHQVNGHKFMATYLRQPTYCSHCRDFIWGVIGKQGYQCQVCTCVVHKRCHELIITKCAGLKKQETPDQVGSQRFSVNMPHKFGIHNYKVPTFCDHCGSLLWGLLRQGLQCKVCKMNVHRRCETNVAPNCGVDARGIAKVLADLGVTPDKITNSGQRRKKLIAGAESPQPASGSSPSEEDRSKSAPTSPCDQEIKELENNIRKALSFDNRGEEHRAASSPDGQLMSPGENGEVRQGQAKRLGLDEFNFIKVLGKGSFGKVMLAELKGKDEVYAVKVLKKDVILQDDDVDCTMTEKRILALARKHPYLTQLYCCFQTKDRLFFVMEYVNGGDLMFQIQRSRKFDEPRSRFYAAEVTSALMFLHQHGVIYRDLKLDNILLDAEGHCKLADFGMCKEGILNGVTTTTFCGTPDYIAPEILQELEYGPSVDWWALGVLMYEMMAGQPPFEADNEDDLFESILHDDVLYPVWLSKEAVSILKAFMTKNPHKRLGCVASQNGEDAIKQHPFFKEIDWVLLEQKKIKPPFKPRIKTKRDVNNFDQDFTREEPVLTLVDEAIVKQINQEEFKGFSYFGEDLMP
T18 sequence (P48730 whole entry): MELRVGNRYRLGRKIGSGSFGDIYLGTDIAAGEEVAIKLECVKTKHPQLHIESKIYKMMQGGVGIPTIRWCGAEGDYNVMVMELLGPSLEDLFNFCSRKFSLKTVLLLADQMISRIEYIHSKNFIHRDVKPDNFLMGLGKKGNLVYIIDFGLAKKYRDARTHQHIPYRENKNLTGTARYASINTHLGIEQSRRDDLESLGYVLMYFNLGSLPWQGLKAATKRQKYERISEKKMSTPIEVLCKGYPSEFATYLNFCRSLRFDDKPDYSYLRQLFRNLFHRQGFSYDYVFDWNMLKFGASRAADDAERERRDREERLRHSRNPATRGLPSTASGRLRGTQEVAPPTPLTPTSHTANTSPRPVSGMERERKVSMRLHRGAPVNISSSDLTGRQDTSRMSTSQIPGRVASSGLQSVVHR
T6 sequence (P45985 whole entry): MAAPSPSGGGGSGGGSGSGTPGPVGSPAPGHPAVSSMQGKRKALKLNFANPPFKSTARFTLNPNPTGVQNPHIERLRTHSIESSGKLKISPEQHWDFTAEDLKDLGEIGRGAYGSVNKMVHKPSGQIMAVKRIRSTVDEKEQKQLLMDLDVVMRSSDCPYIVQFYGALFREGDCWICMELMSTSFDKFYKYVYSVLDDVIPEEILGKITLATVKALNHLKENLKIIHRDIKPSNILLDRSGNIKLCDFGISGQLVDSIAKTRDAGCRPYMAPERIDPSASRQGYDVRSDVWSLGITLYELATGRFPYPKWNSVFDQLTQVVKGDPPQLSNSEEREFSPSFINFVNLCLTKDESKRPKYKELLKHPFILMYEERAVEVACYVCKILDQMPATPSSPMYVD

CC(C)(O)C#Cc1ccc2[nH]c3c(c2c1)-c1nc(N)ncc1CCC3 [AMG28, reference compound]
PIKFYVE % control at 1000nM / DiscoverX PoC value (PIKfyve): 0.4 % control | MAP4K5 % control at 1000nM / DiscoverX PoC value (MAP4K5): 6.6 % control | RIPK5 % control at 1000nM / DiscoverX PoC value (RIPK5): 2.2 % control | percent of control (binding) at 1 µM (MAP3K3; read-out: MAP3K3 % control at 1000nM): 7.2% | percent of control (kinase binding) at 1 µM (PAK7; read-out: PAK7 % control at 1000nM): 0.3% | MEK4 (MKK4) % control at 1000nM / DiscoverX PoC value (MEK4): 8.6 % control | binding, percent of control at 1 µM (MAP3K2; read-out: MAP3K2 % control at 1000nM): 3.7% | binding, percent of control at 1 µM (PAK4; read-out: PAK4 % control at 1000nM): 5.7% | percent of control (binding) at 1 µM ([1]; read-out: JAK2(JH1domain-catalytic) % control at 1000nM): 6.9% | IC50 (TTBK1 [2]): […] | TTBK2 activity remaining (TTBK2): 12% | TTBK1 activity remaining (TTBK1 [3]): 8%

CC(C)(O)C#Cc1ccc2[nH]cc(-c3ccnc(N)n3)c2c1 [Compound 3]
Kinetic solubility [4]: 133 µM | NIK % control at 1000nM (NIK): 9.4 % control | BRAF(V600E) % control at 1000nM (BRAF(V600E)): 6.5 % control | TSSK3 % control at 1000nM / DiscoverX PoC value (TSSK3): 8.1 % control | PFCDPK1(P.falciparum) % control at 1000nM (PFCDPK1(P.falciparum)): 7.8 % control | MAP3K3 % control at 1000nM (MAP3K3; 1 μM): 7.6 % control | PRKD3 (PKD3) % control at 1000nM / DiscoverX PoC value (PRKD3): 1.3 % control | PAK7 % control at 1000nM (PAK7; 1 μM): 0.4 % control | GRK2 % control at 1000nM (GRK2): 9.1 % control | CDC2L2 % control at 1000nM (CDC2L2): 6.6 % control | JAK3(JH1domain-catalytic) % control at 1000nM [5]: 1.8 % control | CSNK1D % control at 1000nM / DiscoverX PoC value (CSNK1D): 8.4 % control | MAP3K2 % control at 1000nM (MAP3K2; 1 μM): 0.8 % control | PAK4 % control at 1000nM (PAK4; 1 μM): 8.3 % control | RPS6KA4(Kin.Dom.2-C-terminal) % control at 1000nM [6]: 0.1 % control | PRKCE % control at 1000nM (PRKCE): 6.8 % control | JAK2(JH1domain-catalytic) % control at 1000nM ([1]; 1 μM): 0.5 % control | AURKB % control at 1000nM (AURKB): 3.7 % control | PRKD2 % control at 1000nM (PRKD2): 8.3 % control | RPS6KA5(Kin.Dom.2-C-terminal) % control at 1000nM [7]: 8.9 % control

CC(C)(O)C#Cc1ccc2[nH]c3c(c2c1)-c1nc(N)ncc1CC3 [Compound 1]
CHEK2 (CHK2) % control at 1000nM / DiscoverX PoC value (CHEK2): 7.9 % control | PIKFYVE % control at 1000nM / DiscoverX PoC value (PIKfyve): 0 % control | MEK4 (MKK4) % control at 1000nM / DiscoverX PoC value (MEK4): 7.3 % control | CSNK1D % control at 1000nM / DiscoverX PoC value (CSNK1D): 3 % control | RPS6KA4(Kin.Dom.2-C-terminal) % control at 1000nM [6]: 7.3 % control | PRKCE % control at 1000nM (PRKCE): 3.1 % control | CSNK1E % control at 1000nM / DiscoverX PoC value (CSNK1E): 6.2 % control
